Assays:
[1] = tested on: NOX1, NOX2, NOX4, α-SMA, E-cadherin, NF-κB p65, TGF-β1, Smad2, Smad3, Smad4 and Smad7 in HK-2 cells; assay: Protein expression in high-glucose induced HK-2 cells (Western blotting); format: cell-based, human; settings: for effect on the formation of EMT: in vitro studies, HK-2, discussion
Method: The expression quantity of related proteins and mRNA in each cell is detected using Western blotting method and Real-time PCR, and the secretion of related factors in cell supernatant is detected using ELISA. […] Human renal tubular epithelial cells (HK-2) were provided by Nanjing KeyGEN Biotechnology Development Co., Ltd. The complete medium was a low-sugar DMEM with 10% FBS and 1% penicillin-streptomycin solution. The cells were cultured at 37° C. under 5% CO2 and saturated humidity in an incubator. Cells were spread in a 96-well plate and cultured with a 5 mmol/Llow-sugar DMEM for 24 hours. […] The number of cells in each group was detected using a cell counting method after 48 hours of the incubation.

[2] = tested on: HK-2 cells; assay: Proliferation of high-glucose induced HK-2 cells; format: cell-based, human; settings: for effect on the proliferation of HK-2: in vitro studies, discussion; for OD / inhibition ratio %: 48 hours
Method: (§1) Human renal tubular epithelial cells (HK-2) were provided by Nanjing KeyGEN Biotechnology Development Co., Ltd. The complete medium was a low-sugar DMEM with 10% FBS and 1% penicillin-streptomycin solution. The cells were cultured at 37° C. under 5% CO2 and saturated humidity in an incubator. Cells were spread in a 96-well plate and cultured with a 5 mmol/Llow-sugar DMEM for 24 hours. […] The number of cells in each group was detected using a cell counting method after 48 hours of the incubation.

[3] = tested on: db/db mice serum; assay: Serum metabonomics (UPLC-QTOF/MS, PLS-DA) of db/db mice; format: in vivo; settings: mouse serum, mean ± SD, n = 6; for Relative distance between administration group and control group in PLS-DA score plot, ESI −: negative ion mode, model group 43.46 ± 3.15; for Relative distance between administration group and control group in PLS-DA score plot, ESI +: positive ion mode, model group 36.62 ± 3.28
Method: After 6 weeks of administration, each of the mice was subjected to blood collection by removing eyeballs. The blood sample was centrifuged at 4° C. and 3000 rpm for 10 minutes to obtain a serum. 100 μL of the frozen-thawed serum was mixed uniformly with 300 μL of acetonitrile under vortex for 2 minutes to produce a mixture. The mixture was centrifuged at 4° C. and 13000 rpm for 10 minutes, and the protein precipitate was removed while the supernatant was collected for determination.
Chromatographic conditions: ACQUITY™UPLC BEH C18 column (2.1 mm×100 mm, 1.7 μm); and mobile phase: 0.1% formic acid aqueous solution (A)−acetonitrile (B). The gradient elution of serum was programmed as follows: 0-3 minutes, 95%-55% A; […], 55%-5% A; 13-14 minutes, 5% A. The injection volume was 2 μL and a column temperature of 35° C. was employed.
Mass spectrometry conditions: ESI ion source (ESI^+/ESI^−); mass scanning range: 100-1000 m/z; a capillary voltage of 3.0 kV and a cone voltage of 30 V; an extraction voltage of 2.0 V; ion source temperature and desolvation temperature: respectively 120° C. and 350° C.; cone gas flow rate: 50 L/h; collision energy: 20-50 eV; desolvation gas flow rate: 600 L/h; activation time: 30 ms; and collision gas: high-purity nitrogen. Leucine-enkephalin (ESI^−: 555.2615 m/z, ESI^+: 556.2771 m/z) solution of 200 pg/mL was used as a mass-locking solution at a flow rate of 100 μL/min.
The obtained original mass spectrometry data was processed using Masslynx v4.1 software. The main parameters included: retention time range: 0-14 minutes; m/z range: 100-1000; mass tolerance range: 0.01 Da; peak intensity threshold: 50; mass window: 0.05 Da; retention time window: 0.2 minutes; and automatic detection of 5% peak height and noise. The intensity of each ion was normalized relative to the total ion count to produce a data list consisting of retention time, m/z value and standardized peak area. The data were imported into EZinfo 2.0 for supervised partial least squares discriminant analysis (PLS-DA) and orthogonal partial least squares discriminant analysis (OPLS-DA). The separation of various metabolites between the control group and the model group was shown in the OPLS-DA plot. Potential biomarkers were extracted from the S-plot constructed after OPLS-DA analysis, and each point in the S-plot represented the information of the corresponding variable. The variable importance in the projection (VIP) was measured by the magnitude of the VIP value. The variables were screened according to the VIP value, and the variable with VIP>1 may be selected as a potential biomarker and the molecular formula of the variable of significant difference between the model group and the control group was further identified. Cross validation parameters R^2Y and Q^2were used to describe the PLS-DA score plot, which represented the total explanatory variables of the […] and the predictability of the model, respectively. When a cumulative value of R^2Y and Q^2 was greater than 0.8, the model may be considered to be reliable. The relative distances between other groups and the control group in the PLS-DA score plot were calculated using the average values of all samples (X and Y axes) of the control group as reference points. This quantitative value can be used as an evaluation index of pharmacodynamics and metabonomics to solve many problems in lacking of accurate and quantitative evaluation methods for pharmacodynamics. SPSS 21.0 software was used for statistical analysis of the relevant data. T-test analysis was performed among groups to verify the significance of the difference of potential biomarkers in different groups. The data were expressed as mean±SD, and the data were considered to have a statistical significance with P<0.05. […]

[4] = tested on: db/db mice; assay: Biochemical indexes of db/db mice after 6 weeks of intragastric administration; format: in vivo; settings: ig once a day for 6 weeks, metformin 250, irbesartan 50, verbascoside 70.8 mg·kg^−1·d^−1
Method: 32 male db/db mice and 10 male db/m mice of SPF grade, aged 6-8 weeks and weighing 25-40 g, were purchased from Nanjing Biomedical Research Institute of Nanjing University with an animal license number of SCXK (Su 2015-0001).The mice were raised in an animal room under alternating light and dark every 12 hours with constant temperature of 22±2° C. and humidity of 55±10%.
All mice were adaptively fed for 3 weeks, and db/m mice were used as a control group with a total number of 10. Db/db mice were randomly divided into four groups according to blood sugar and body weight each of 8 mice, and the four groups respectively were a model group (M), a metformin group (EJSG, 250 mg·kg^−1·d^−1), an irbesartan group (EBST, 50 mg·kg^−1·d^−1) and a verbascoside group (MRHTG, 70.8 mg·kg^−1·d^−1). The same amount of saline was intragastrically administered(ig) to the mice in the control group and the model group, and the volume of intragastric administration (ig) was 10 mL·kg^−1, and such administration was performed once a day for continuous 6 weeks.
One day before the end of the experiment, urine was collected in a metabolic cage for 12 hours and the urine volume was recorded. Microalbuminuria content was measured and fasting blood glucose (FBG) of mice in each group was measured by tail vein blood sampling. After drug intervention, mice were anesthetized with intraperitoneal injection of 10% chloral hydrate, and blood was collected from eyeballs. The blood was centrifuged at 3000 rpm and 4° C. for 10 minutes to obtain a serum. The serum was then subjected to determination of serum creatinine, blood urea nitrogen, blood insulin, cholesterol, triglyceride, glutamic-pyruvic transaminase and glutamic-oxalacetic transaminase contents.

[5] = tested on: kidneys of db/db mice; assay: Pathological sections of kidney (HE, PAS) of db/db mice; format: in vivo; settings: 6 weeks, irbesartan 50, verbascoside 70.8 mg·kg^−1·d^−1
[6] = tested on: HK-2 cells; assay: Morphology of high-glucose induced HK-2 cells; format: cell-based, human; settings: 50 μmol/L, 48 hours
[7] = tested on: MCP-1, IL-1β, TNF-α and IL-6 in supernatant of HK-2 cells; assay: Secretion of inflammatory factors in supernatant of HK-2 cells (ELISA); format: cell-based, human; settings: 50 μmol/L, HK-2 cells with high glucose-induced injuries
Description: (§2) In the present invention, human renal tubular epithelial (HK-2) cells are selected to establish a high sugar-induced HK-2 cell injury model, and TLR capsules, TLR extract and its major active components verbascoside and catalpol are used for intervention. The expression quantity of related proteins and mRNA in each cell is detected using Western blotting method and Real-time PCR, and the secretion of related factors in cell supernatant is detected using ELISA. In addition, the effect of TLR on regulating oxidative stress reactions of HK-2 cells and TGF-β/smad signal pathway is further explored.
as §1

[8] = tested on: nephrotoxic nephritis rats model; settings: cited from earlier work
[9] = rats; cited from earlier work
[10] = tested on: NOX1, NOX2, NOX4, α-SMA, E-cadherin, NF-κB p65, TGF-β1, Smad2, Smad3, Smad4 and Smad7 in HK-2 cells; assay: mRNA expression in high-glucose induced HK-2 cells (Real-time PCR); format: cell-based, human; settings: 50 μmol/L, HK-2 cells with high glucose-induced injuries
Description: as §2, §1

[11] = 50 μmol·L^−1, high glucose 30 mmol/L
[12] = 10 μmol·L^−1, high glucose 30 mmol/L
[13] = 25 μmol·L^−1, high glucose 30 mmol/L
[14] = 100 μmol·L^−1, high glucose 30 mmol/L

Structure (SMILES)	effect on the formation of EMT [1]	effect on the proliferation of HK-2 [2]	Relative distance between administration group and control group in PLS-DA score plot, ESI − [3]	Relative distance between administration group and control group in PLS-DA score plot, ESI + [3]	contents of FBG, T-CHO, TG, GOT, GPT, INS, BUN, mALB and Scr [4]	results of histological examination of kidney (HE, PAS mean OD) [5]	cell morphologies [6]	OD [2, 11]	inhibition ratio % [2, 11]	other results
OC[C@H]1O[C@@H](O[C@@H]2OC=C[C@H]3[C@H](O)[C@@H]4O[C@]4(CO)[C@@H]23)[C@H](O)[C@@H](O)[C@@H]1O [catalpol, reference compound]	had an effect on inhibiting	had an effect on inhibiting	–	–	–	–	–	–	–	–
CCCCC1=NC2(CCCC2)C(=O)N1Cc1ccc(-c2ccccc2-c2nnn[nH]2)cc1 [irbesartan, reference compound]	–	–	32.16 ± 10	21.56 ± 8.01	tended to be normal	close to those of the control group	close to those of the control group	0.576 ± 0.02	80.57%	–
CN(C)C(=N)N=C(N)N [metformin]	–	–	34.94 ± 2.74	36.57 ± 1.53	tended to be normal	–	–	–	–	–
C[C@@H]1O[C@@H](O[C@@H]2[C@@H](O)[C@H](OCCc3ccc(O)c(O)c3)O[C@H](CO)[C@H]2OC(=O)/C=C/c2ccc(O)c(O)c2)[C@H](O)[C@H](O)[C@H]1O [verbascoside]	had an effect on inhibiting	had an effect on inhibiting	28.59 ± 3.33	31.62 ± 1.07	tended to be normal	close to those of the control group	close to those of the control group	0.557 ± 0.012	73.95%	expression levels of MCP-1, IL-1β, TNF-α and IL-6 in the supernatant [7]: returned to normal; adverse effects [8]: without causing obvious adverse effects; renal function injury [8]: capable of improving; oral bioavailability [9]: low; mRNA expressions of NOX1, NOX2, NOX4, α-SMA, E-cadherin, NF-κB p65, TGF-β1, Smad2, Smad3, Smad4 and Smad7 [10]: all returned to normal; protein expressions of NOX1, NOX2, NOX4, α-SMA, E-cadherin, NF-κB p65, TGF-β1, Smad2, Smad3, Smad4 and Smad7 ([1]; 50 μmol/L, HK-2 cells with high-glucose induced injuries): all returned to normal; inhibition ratio % ([2]; 5 μmol·L^−1, high glucose 30 mmol/L): 25.52%; OD ([2]; 5 μmol·L^−1, high glucose 30 mmol/L, control 0.632, model 0.345): 0.418 ± 0.008; OD [2, 12]: 0.457 ± 0.014; inhibition ratio % [2, 12]: 39.02%; OD [2, 13]: 0.501 ± 0.015; inhibition ratio % [2, 13]: 54.36%; OD [2, 14]: 0.559 ± 0.01; inhibition ratio % [2, 14]: 74.65%; proliferation of HK-2 cells under a high glucose condition ([2]; 5, 10, 25, 50, 100 μmol/L): could promote the proliferation of HK-2 cells under a high glucose condition, and the promotion of the proliferation was dose-dependent

From patent US20210161929A1, “USES OF VERBASCOSIDE IN TREATMENT OF DIABETIC-ASSOCIATED KDINEY INJURY AND DIABETIC-ASSOCIATED LIVER INJURY” (NANJING UNIVERSITY OF CHINESE MEDICINE, priority 2018, published 2021)
